Experiments:
EWS-FLI1/RHA interaction = biological target: T1, EWS-FLI1/RHA interaction (Homo sapiens, UniProt Q01543+Q01844); test: Immunoblot of co-precipitated protein lysates from treated TC32 cells; format: cell-based; conditions: FIG. 4
T1 construct: endogenous in cells; host or cells: TC32 cells
T1 sequence (Q01844+Q01543 with tags, fused parts or gaps): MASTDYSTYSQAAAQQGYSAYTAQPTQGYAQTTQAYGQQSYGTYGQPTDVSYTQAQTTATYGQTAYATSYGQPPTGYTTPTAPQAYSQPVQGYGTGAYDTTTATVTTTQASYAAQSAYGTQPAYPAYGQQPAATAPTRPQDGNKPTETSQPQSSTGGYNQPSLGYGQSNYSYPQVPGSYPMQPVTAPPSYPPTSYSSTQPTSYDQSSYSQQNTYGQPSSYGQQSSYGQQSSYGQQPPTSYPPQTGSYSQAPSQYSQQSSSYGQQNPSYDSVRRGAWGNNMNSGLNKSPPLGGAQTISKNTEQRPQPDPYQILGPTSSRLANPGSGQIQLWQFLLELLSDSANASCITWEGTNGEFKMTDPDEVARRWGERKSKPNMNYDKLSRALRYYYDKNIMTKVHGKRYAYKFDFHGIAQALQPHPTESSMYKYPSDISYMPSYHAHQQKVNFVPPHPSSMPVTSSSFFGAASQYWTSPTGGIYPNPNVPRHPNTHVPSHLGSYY
Description: The disruption of the interaction of RHA with EWS-FLI1 presents an avenue for the development of a class of small molecules as potential therapeutics against the Ewing's family sarcoma tumors.

EWS-FLI1 and ESFT cells = conditions: cited from earlier work
[1] = tested on: TC71 (human ESFT cell line); test: IC50 activity in TC71 cells; format: cell-based
Procedure: Compounds provided in Table 2 were prepared using methods similar to those described herein. The structures and IC50 activities of particular compounds in PANC1 (a human pancreatic carcinoma), TC32 (human ESFT cell line), and TC71 (human ESFT cell line) cells are summarized in Table 2.
Growth inhibition of ESFT cells was measured for various concentrations of particular compounds.

COc1ccc(C(=O)CC2(O)C(=O)Nc3c(Cl)ccc(Cl)c32)cc1 (racemic) [YK-4-279]
disruption of interaction of RHA with EWS-FLI1 (EWS-FLI1/RHA interaction; co-precipitation): did disrupt their interactions
effect on level of EWS-FLI1 or RHA (EWS-FLI1/RHA interaction; immunoblot): did not directly affect the level of EWS-FLI1 or RHA
caspase-3 activity (EWS-FLI1 and ESFT cells): increase
functional inhibition of EWS-FLI1 and ESFT cells (EWS-FLI1 and ESFT cells): functionally inhibit EWS-FLI1 and ESFT cells

CN(C)c1ccc(C(=O)CC2(O)C(=O)Nc3c(Cl)ccc(Cl)c32)cc1 (centres unmarked) [PT-1-17]
potency compared with YK-4-279 [1]: appeared to be more potent
